From patent publication US20130209543A1, “ENHANCED TREATMENT REGIMENS USING MTOR INHIBITORS” (Intellikine LLC, priority 2011, published 2013) come the findings set out here.

Where two headings read alike, the source gives them in different places.

What all share (assay type): biochemical
One assay concerns the target T1, mTOR (Homo sapiens, UniProt P42345).
T1 construct: purchased Invitrogen
Description: mTOR kinase inhibition assay.

Another assay concerns the target PI3K α (Homo sapiens, UniProt P42336). Description: PI3K α kinase assay.
In another assay the target is PI3K δ (Homo sapiens, UniProt O00329). Description: PI3K δ kinase assay. The note with it: Table 1.
Chain of PI3K δ (O00329 whole entry, species assumed): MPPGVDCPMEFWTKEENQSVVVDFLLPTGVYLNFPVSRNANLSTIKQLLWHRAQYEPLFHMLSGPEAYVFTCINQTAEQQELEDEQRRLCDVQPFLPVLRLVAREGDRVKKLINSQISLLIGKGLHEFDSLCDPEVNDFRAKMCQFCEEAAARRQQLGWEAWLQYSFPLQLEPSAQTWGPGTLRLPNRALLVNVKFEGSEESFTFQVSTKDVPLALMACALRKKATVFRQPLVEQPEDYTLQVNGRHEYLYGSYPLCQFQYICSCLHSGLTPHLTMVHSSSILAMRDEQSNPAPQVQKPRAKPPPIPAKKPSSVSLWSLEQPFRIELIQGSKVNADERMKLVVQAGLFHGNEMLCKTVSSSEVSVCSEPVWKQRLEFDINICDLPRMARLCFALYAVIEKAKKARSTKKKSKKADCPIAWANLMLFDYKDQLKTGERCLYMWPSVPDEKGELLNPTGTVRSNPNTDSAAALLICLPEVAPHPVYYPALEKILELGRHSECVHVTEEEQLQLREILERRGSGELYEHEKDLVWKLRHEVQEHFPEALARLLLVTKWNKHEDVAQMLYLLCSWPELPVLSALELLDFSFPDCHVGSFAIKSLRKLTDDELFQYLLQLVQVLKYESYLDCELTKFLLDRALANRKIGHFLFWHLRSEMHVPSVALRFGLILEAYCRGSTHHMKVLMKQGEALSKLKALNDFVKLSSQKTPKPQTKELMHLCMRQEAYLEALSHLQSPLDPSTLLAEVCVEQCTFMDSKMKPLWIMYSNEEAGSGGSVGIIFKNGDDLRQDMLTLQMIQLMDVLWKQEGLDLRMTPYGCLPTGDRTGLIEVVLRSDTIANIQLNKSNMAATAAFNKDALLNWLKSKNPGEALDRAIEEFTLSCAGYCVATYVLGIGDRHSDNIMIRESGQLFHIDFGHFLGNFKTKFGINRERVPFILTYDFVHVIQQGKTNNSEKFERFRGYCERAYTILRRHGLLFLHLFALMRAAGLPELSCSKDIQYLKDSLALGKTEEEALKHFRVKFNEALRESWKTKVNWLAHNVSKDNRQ
Chain of PI3K δ (P27986 whole entry partner, species assumed): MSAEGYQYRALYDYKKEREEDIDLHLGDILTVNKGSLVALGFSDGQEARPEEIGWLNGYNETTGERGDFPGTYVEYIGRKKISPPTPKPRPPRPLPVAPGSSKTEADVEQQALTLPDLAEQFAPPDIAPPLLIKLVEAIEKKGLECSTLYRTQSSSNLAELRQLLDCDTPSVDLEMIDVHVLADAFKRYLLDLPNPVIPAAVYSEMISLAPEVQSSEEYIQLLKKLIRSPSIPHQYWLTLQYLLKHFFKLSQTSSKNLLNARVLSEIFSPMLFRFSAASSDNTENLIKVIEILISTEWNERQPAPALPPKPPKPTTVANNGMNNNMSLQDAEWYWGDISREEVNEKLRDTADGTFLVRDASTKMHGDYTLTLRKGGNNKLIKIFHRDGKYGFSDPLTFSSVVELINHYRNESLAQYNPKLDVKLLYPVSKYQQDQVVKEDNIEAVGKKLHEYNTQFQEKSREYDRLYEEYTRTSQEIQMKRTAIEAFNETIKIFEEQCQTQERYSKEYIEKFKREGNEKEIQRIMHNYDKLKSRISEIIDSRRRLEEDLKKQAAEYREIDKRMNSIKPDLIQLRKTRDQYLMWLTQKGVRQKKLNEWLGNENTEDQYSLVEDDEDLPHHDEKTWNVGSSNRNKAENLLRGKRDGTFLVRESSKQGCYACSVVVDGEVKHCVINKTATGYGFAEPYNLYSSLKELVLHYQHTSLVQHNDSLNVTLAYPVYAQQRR
For the next assay, the target named is PI3K γ (Homo sapiens, UniProt P48736). The experiment in a line: PI3K γ kinase assay. Conditions: Table 1.
Chain of PI3K γ (P48736 whole entry, species assumed): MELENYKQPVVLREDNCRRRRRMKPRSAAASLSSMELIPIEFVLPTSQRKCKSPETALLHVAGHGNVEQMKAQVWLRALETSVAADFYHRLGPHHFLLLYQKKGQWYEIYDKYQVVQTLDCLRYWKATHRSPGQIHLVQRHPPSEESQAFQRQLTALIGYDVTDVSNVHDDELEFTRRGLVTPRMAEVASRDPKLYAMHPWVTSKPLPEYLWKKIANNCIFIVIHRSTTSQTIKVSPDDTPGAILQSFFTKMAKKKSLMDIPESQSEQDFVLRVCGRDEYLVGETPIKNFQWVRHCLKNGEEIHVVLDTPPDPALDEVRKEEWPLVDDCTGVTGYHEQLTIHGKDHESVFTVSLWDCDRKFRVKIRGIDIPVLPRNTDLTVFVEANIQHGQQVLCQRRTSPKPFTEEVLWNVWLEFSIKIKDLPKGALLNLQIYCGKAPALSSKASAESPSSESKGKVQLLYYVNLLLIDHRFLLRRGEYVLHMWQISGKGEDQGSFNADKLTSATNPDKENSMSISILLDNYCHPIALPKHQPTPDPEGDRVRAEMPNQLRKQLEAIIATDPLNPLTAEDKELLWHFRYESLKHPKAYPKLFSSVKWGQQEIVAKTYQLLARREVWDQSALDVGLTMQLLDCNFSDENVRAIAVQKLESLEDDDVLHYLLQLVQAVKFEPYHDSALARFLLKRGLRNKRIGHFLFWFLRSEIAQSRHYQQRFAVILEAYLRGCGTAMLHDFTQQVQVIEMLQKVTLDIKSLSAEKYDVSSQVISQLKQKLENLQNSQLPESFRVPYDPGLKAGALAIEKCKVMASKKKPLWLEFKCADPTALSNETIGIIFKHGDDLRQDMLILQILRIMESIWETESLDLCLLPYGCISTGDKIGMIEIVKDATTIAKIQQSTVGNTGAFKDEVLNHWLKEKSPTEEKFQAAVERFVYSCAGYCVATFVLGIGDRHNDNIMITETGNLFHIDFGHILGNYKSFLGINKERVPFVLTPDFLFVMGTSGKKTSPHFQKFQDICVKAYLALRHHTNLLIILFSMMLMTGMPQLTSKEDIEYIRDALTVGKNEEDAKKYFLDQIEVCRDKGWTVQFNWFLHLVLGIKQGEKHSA
For another assay, the target named is PI3K β (Homo sapiens, UniProt P42338). The experiment in a line: PI3K β kinase assay. Conditions: Table 1.
Chain of PI3K β (P42338 whole entry, species assumed): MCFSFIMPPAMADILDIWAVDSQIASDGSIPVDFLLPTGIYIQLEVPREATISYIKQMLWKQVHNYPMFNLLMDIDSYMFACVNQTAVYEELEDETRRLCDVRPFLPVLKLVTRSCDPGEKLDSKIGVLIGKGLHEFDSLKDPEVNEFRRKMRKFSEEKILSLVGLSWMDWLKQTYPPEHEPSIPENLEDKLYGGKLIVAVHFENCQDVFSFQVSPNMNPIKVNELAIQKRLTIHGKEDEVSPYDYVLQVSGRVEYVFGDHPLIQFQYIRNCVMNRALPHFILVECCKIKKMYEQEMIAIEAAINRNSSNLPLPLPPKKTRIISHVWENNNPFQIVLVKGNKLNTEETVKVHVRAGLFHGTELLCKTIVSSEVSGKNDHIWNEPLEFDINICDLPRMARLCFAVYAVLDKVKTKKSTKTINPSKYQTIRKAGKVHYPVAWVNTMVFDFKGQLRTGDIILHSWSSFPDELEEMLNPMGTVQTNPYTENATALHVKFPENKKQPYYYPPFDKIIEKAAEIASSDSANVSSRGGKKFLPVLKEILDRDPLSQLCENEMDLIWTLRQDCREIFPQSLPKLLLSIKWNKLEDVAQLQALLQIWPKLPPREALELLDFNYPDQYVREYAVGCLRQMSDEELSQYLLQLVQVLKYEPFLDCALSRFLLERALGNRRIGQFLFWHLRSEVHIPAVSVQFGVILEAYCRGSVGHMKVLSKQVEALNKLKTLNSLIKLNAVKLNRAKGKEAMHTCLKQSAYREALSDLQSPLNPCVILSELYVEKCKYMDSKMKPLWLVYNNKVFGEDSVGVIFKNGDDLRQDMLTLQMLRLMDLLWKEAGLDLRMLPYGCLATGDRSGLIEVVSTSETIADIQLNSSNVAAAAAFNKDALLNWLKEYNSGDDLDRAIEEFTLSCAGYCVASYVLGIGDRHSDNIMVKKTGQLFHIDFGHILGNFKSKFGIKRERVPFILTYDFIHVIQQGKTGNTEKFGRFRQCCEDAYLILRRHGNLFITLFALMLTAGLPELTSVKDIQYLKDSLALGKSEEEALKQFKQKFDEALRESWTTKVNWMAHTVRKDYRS
Chain of PI3K β (P27986 whole entry partner, species assumed): as the sequence (P27986 whole entry partner, species assumed) above

Chain of PI3K α (P42336 whole entry, species assumed): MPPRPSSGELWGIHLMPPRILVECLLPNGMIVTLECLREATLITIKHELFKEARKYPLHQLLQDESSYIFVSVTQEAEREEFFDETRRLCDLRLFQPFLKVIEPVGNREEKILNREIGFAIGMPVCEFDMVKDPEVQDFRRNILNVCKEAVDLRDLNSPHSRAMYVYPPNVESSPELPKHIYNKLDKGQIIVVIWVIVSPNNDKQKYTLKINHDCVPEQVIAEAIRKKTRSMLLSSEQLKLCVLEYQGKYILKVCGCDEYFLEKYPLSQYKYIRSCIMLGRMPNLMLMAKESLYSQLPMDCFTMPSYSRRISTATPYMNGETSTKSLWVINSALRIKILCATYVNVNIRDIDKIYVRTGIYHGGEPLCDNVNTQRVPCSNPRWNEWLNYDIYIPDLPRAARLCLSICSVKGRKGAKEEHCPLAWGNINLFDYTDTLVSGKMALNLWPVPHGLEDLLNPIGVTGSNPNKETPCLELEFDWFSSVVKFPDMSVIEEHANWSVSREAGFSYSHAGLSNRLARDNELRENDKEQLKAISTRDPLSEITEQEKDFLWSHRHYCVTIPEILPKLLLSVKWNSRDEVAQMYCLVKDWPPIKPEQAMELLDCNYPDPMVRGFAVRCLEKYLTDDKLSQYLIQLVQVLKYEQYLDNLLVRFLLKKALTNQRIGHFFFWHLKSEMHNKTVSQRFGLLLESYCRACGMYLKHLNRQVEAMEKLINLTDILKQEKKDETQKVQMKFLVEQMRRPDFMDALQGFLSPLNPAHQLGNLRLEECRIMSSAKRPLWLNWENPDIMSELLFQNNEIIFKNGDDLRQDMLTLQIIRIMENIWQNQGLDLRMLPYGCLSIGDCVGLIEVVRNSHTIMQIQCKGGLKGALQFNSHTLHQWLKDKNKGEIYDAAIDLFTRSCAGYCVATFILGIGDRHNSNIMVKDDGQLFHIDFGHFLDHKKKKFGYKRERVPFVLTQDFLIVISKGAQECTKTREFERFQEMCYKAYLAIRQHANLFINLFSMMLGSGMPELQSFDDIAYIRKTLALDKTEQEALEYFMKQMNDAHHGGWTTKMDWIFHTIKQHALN
Chain of PI3K α (P27986 whole entry partner, species assumed): as the sequence (P27986 whole entry partner, species assumed) above
Description for mTOR: The compounds described herein and any other mTorC1/mTorC2 inhibitors known in the art can be tested against recombinant mTOR (Invitrogen) in an assay containing 50 mM HEPES, pH 7.5, 1 mM EGTA, 10 mM MgCl2, 2.5 mM, 0.01% Tween, 10 μM ATP (2.5 μCi of μ-32P-ATP), and 3 mg/mL BSA. Rat recombinant PHAS-1/4EBP1 (Calbiochem; 2 mg/mL) is used as a substrate. Reactions are terminated by spotting onto nitrocellulose, which is washed with 1M NaCl/1% phosphoric acid (approximately 6 times, 5-10 minutes each). Sheets are dried and the transferred radioactivity quantitated by phosphorimaging.
For instance, one can use Invitrogen's LanthaScreen™ Kinase assay to test the inhibitors of mTOR disclosed herein. This assay is a time resolved FRET platform that measures the phosphorylation of GFP labeled 4EBP1 by mTOR kinase. The kinase reaction is performed in a white 384 well microtitre plate. The total reaction volume is 20 μl per well and the reaction buffer composition is 50 mM HEPES pH7.5, 0.01% Polysorbate 20, 1 mM EGTA, 10 mM MnCl2, and 2 mM DTT. In the first step, each well receives 2 ul of test compound in 20% dimethylsulphoxide resulting in a 2% DMSO final concentration. Next, 8ul of mTOR diluted in reaction buffer is added per well for a 60 ng/ml final concentration. To start the reaction, 10 ul of an ATP/GFP-4EBP1 mixture (diluted in reaction buffer) is added per well for a final concentration of 10 μM ATP and 0.5 μM GFP-4EBP1. The plate is sealed and incubated for 1 hour at room temperature. […] The plate is sealed, incubated for 1 hour at room temperature, and then read on a plate reader set up for LanthaScreen™ TR-FRET. Data is analyzed and IC50s are generated using GraphPad Prism 5.

`CC(C)n1nc(-c2cc3cc(F)ccc3[nH]2)c2c(NC(=O)N(C)C)ncnc21` [Compound 2]: the IC50 – broadly, the concentration needed to halve the response being measured – on mTOR (Table 2, read-out: mTORC IC50) is greater than 500 nM.

In turn, `CC(=O)Nc1nc2ccc(-c3nn(C(C)C)c4ncnc(N)c34)cc2o1` [Compound 3] returned a half-inhibitory concentration (IC50) against PI3K α (Table 1) greater than 10000 nM.

`CC(C)n1nc(-c2cc3cc(F)ccc3[nH]2)c2c(N)ncnc21` [Compound 3]: the IC50 is 100 to 500 nM at mTOR (Table 2, read-out: mTORC IC50) and greater than 500 nM against PI3K α (Table 2).

Take `CC(C)n1nc(-c2cc3cc(C#N)ccc3[nH]2)c2c(N)ncnc21` [Compound 4]: the IC50 at mTOR (Table 2, read-out: mTORC IC50) was greater than 500 nM; on PI3K α (Table 2) it was greater than 500 nM.

`COc1ccc2[nH]c(-c3nn(C(C)C)c4ncnc(N)c34)cc2c1` [Compound 5]: the IC50 was greater than 500 nM on mTOR (Table 2, read-out: mTORC IC50) and greater than 500 nM against PI3K α (Table 2).

For the compound `CC(C)n1nc(-c2cc3ccccc3n2C)c2c(N)ncnc21` [Compound 6], the IC50 on mTOR (Table 2, read-out: mTORC IC50) is greater than 500 nM; on PI3K α (Table 2), greater than 500 nM.

As for `CC(C)n1nc(-c2cc3ccccc3[nH]2)c2c(N)ncnc21` [Compound 7], the IC50 on mTOR (Table 2, read-out: mTORC IC50) was 50 to 100 nM; against PI3K α (Table 2) it was greater than 500 nM.

For the compound `COc1ccc2cc(-c3nn(C(C)C)c4ncnc(N)c34)[nH]c2c1` [Compound 8], the IC50 at mTOR (Table 2, read-out: mTORC IC50) is greater than 500 nM; at PI3K α (Table 2) it was greater than 500 nM.

For `CC(C)n1nc(-c2cc3c(Cl)cccc3[nH]2)c2c(N)ncnc21` [Compound 9], the IC50 on mTOR (Table 2, read-out: mTORC IC50) was 25 to 50 nM; against PI3K α (Table 2) it was greater than 500 nM.

In the case of `COc1cccc2cc(-c3nn(C(C)C)c4ncnc(N)c34)[nH]c12` [Compound 10], the half-maximal inhibitory concentration (IC50) at mTOR (Table 2, read-out: mTORC IC50) was in the range of 10 to 25 nM.

`CNc1noc2cc(-c3nn(C(C)C)c4ncnc(N)c34)ccc12` [Compound 13]: the IC50 on PI3K δ was less than 1000 nM; at mTOR (Table 1, read-out: mTOR IC50), less than 10000 nM; on PI3K α (Table 1) it was less than 10000 nM; against PI3K γ, less than 1000 nM.

For the compound `COc1cc(Cl)c2[nH]c(-c3nn(C(C)C)c4ncnc(N)c34)cc2c1` [Compound 13], the IC50 on mTOR (Table 2, read-out: mTORC IC50) is greater than 500 nM; on PI3K α (Table 2), greater than 500 nM.

In the case of `CC(C)n1nc(-c2ccc3c(NC4CC4)noc3c2)c2c(N)ncnc21` [Compound 14], the half-maximal inhibitory concentration (IC50) is less than 10000 nM at PI3K δ; less than 10000 nM on mTOR (Table 1, read-out: mTOR IC50); less than 10000 nM on PI3K α (Table 1).

Turning to `COc1cc(F)c2[nH]c(-c3nn(C(C)C)c4ncnc(N)c34)cc2c1` [Compound 14], the IC50 on mTOR (Table 2, read-out: mTORC IC50) was greater than 500 nM; against PI3K α (Table 2), greater than 500 nM.

Take `CC(C)n1nc(-c2ccc3onc(NC4CC4)c3c2)c2c(N)ncnc21` [Compound 16]: the IC50 is greater than 10000 nM at PI3K δ; greater than 10000 nM at mTOR (Table 1, read-out: mTOR IC50); greater than 10000 nM against PI3K α (Table 1).

Consider `CC(C)n1nc(-c2cc3cc(Cl)ccc3[nH]2)c2c(N)ncnc21` [Compound 17], for which the IC50 on mTOR (Table 2, read-out: mTORC IC50) is greater than 500 nM; on PI3K α (Table 2), greater than 500 nM.

Consider `Nc1noc2ccc(-c3nn(CC(=O)N4CCOCC4)c4ncnc(N)c34)cc12` [Compound 17], for which the IC50 is greater than 10000 nM on PI3K δ; greater than 10000 nM at mTOR (Table 1, read-out: mTOR IC50); greater than 10000 nM at PI3K α (Table 1); greater than 10000 nM against PI3K γ.

Take `COc1ccc2[nH]c(-c3nn(C(C)C)c4ncnc(N)c34)cc2n1` [Compound 18]: the 50% inhibitory concentration (IC50) at mTOR (Table 2, read-out: mTORC IC50) is greater than 500 nM.

As to `COC(=O)Nc1noc2ccc(-c3nn(C(C)C)c4ncnc(N)c34)cc12` [Compound 19], the IC50 against PI3K δ was greater than 10000 nM; on mTOR (Table 1, read-out: mTOR IC50), less than 10000 nM; against PI3K α (Table 1), greater than 10000 nM; against PI3K β, greater than 10000 nM.

Take `COc1cnc2[nH]c(-c3nn(C(C)C)c4ncnc(N)c34)cc2c1` [Compound 19]: the IC50 on mTOR (Table 2, read-out: mTORC IC50) is greater than 500 nM; against PI3K α (Table 2), greater than 500 nM.

As to `CC(C)n1nc(-c2cc3cnccc3[nH]2)c2c(N)ncnc21` [Compound 20], the IC50 is greater than 500 nM at mTOR (Table 2, read-out: mTORC IC50) and greater than 500 nM against PI3K α (Table 2).

For `COC(=O)Nc1noc2cc(-c3nn(C(C)C)c4ncnc(N)c34)ccc12` [Compound 20], the IC50 against PI3K δ is less than 10000 nM; on mTOR (Table 1, read-out: mTOR IC50), less than 10000 nM; against PI3K α (Table 1), less than 10000 nM; on PI3K β it was greater than 10000 nM.

For the compound `CC(C)n1nc(-c2cc3cc(C(N)=O)ccc3[nH]2)c2c(N)ncnc21` [Compound 23], the IC50 at mTOR (Table 2, read-out: mTORC IC50) is greater than 500 nM; against PI3K α (Table 2), greater than 500 nM.

In the case of `Nc1nc2cc(-c3nn(C4CC(O)C4)c4ncnc(N)c34)ccc2o1` (stereo not drawn) [Compound 26], the IC50 on PI3K α (Table 1) and on PI3K γ was less than 100 nM each time.
